Cc1cc(Cl)cc(C(=O)O)c1N
solubility (mole fraction)
Details	278.15 K	283.15 K	288.15 K	293.15 K	298.15 K	303.15 K	308.15 K	313.15 K	318.15 K	323.15 K
in acetone	0.0119	0.0131	0.0152	0.0175	0.0199	0.0227	0.0266	0.0315	0.0371	0.0436
in acetonitrile	0.00122	0.00126	0.00139	0.00154	0.00173	0.00198	0.0023	0.0027	0.00331	0.00423
in ethanol	0.00708	0.00736	0.00758	0.00807	0.00867	0.00934	0.0103	0.0114	0.0129	0.0144
in ethyl acetate	0.00636	0.0067	0.0071	0.00769	0.00829	0.00933	0.0105	0.012	0.0138	0.0162
in isopropanol	0.00728	0.00744	0.0077	0.00809	0.00856	0.00911	0.00977	0.0105	0.0114	0.0123
in methanol	0.00128	0.00157	0.00199	0.00241	0.00305	0.00375	0.00452	0.00556	0.00672	0.00815
in n-butanol	0.00553	0.0057	0.00609	0.00648	0.00729	0.0082	0.00931	0.0109	0.0131	0.016
in n-hexane	0.000105	0.000166	0.000245	0.000343	0.000443	0.000558	0.000685	0.000821	0.000959	0.00113
in n-propanol	0.00516	0.00552	0.00579	0.00646	0.0072	0.00803	0.00936	0.0109	0.0128	0.0153

Source: BigSolDB 2.1
